Measurements: patent US8957087B2, “Heterocyclic substituted acardite derivate and application thereof” (Jiangsu Provincial Institute of Materia Medica Co., Ltd., priority 2009, dated 2015)

Legend:
[1] = tested on: mice S180 sarcoma; experiment: Experimental therapeutic action on S180 sarcoma mice; details: mice S180 sarcoma, 60 mg/kg orally for 9 days
Description: Experimental therapeutic action of the compound in the present invention on S180 sarcoma mice
18-25 g female ICR mice and well grown 7-11 day old mice sarcoma S180 tumor seeds were selected, and the seeds were inoculated into the subcutaneous at the right axillary. After inoculated 24 hours, these mice were randomly divided into cages and orally administrated 60 mg/kg for 9 days. On 10 day, the animals were killed and weighed, and the tumor weights were weighed to calculate average tumor weight in each group, followed by calculating the tumor inhibition rate according to the following formula and T test.

[2] = tested on: human umbilical vein endothelial cell HUVEC; experiment: Lumen formation ability of HUVEC (Matrigel method); assay type: cell-based; details: Final concentration 1 x 1.0*10^(−5) mol/L
Description: 8. Inhibition effects of compounds on the lumen formation ability of human umbilical vein endothelial cell HUVEC
[Experimental principles] The human umbilical vein endothelial cells have ability of spontaneously forming blood lumen on Matrigel, which can be used to simulate the process of angiogenesis in vivo. We used Matrigel method to investigate the effects of the compound on the lumen formation ability of human umbilical vein endothelial cell HUVEC.
[Test materials] HUVEC (taking generation 3 to 5 cells for experiments after obtained from primary separation and cultured at 37 under the conditions of 5% CO2), Matrigel, cell culture medium M199.
(§1) [Tested compound] Compounds 1-38
(§2) [Positive control medicine] Sorafenib, compounds A′, B′, C′ with no substituent or only amino formyl in A ring
(§3) The inhibition rate is calculated as follows: […]

[3] = tested on: lung cancer cell A549; experiment: Effects on the adhesive ability of lung cancer cell A549; assay type: cell-based, human; details: Final concentration 1 x 1.0*10^(−5) mol/L
Description: 6. Effects of tested compounds on the adhesive ability of lung cancer cell A549
[Test materials] gelatin, CCK8, poly-lysine (PLL), A549 cell stains, 1640 medium containing 10% FBS
(§4) [Tested compound] Compounds 1-38 to be tested
as §2, §3
Dosing dosing cells without cell group (gelatin adhesive OD/PLL adhesion OD)−Dosing cell group (gelatin adhesive OD/PLL adhesion OD value)
Dosing dosing cells without cell group (gelatin adhesive OD/PLL adhesion OD value)

[4] = tested on: renal carcinoma cell line GCR-1 transplanted tumor; assay type: in vivo, BALB/cA nude mice; details: BALB/cA nude mice; 60 mg/kg, 6 times every week for 3 weeks; Sorafenib oral 60 mg/kg
Description: 11. Tumor inhibition rate of medicines on renal carcinoma cell line GCR-1 transplanted tumor model in nude mice
(§5) [Test animals] female BALB/cA nude mice, 35-40 days old, with weight of 18-22g. There were 12 mice in the negative conrol group and 6 mice in the treatment group.
[Test method] […] The dosage of the medicine was 60 mg/kg, 6 times every week for 3 weeks. […] Equal amount of normal saline was administrated in the negative control group. Observe for one week after administration.

[5] = tested on: human liver cancer cell bel-7402 transplantation tumor; assay type: in vivo; details: BALB/cA nude mice; 60 mg/kg, 6 times every week for 3 weeks; Sorafenib oral 60 mg/kg
Description: 10. Tumor inhibition rate of tested compounds on human liver cancer cell bel-7402 transplantation tumor model in nude mice
as §5
(§6) The dosage of the compound was 60 mg/kg, 6 times every week for 3 weeks. […] Equal amount of normal saline was administrated in the negative control group. Observe for one week after administration.

[6] = tested on: Raf-1(truncated); experiment: Raf-1 inhibitor screening by chemoluminescence method; assay type: biochemical; details: Final concentration 1 x 1.0*10^−5 mol/ml
Description: 1. Inhibitory activity of the compound of the present invention on raf kinase
Raf-1 inhibitor screening by chemoluminescence method
Westernblot electrophoresis apparatus Rotaryshaker
Raf-1(truncated), Magnesium/ATP Cocktail, MEK1 unactive

[7] = tested on: Human colon cancer HT-29 transplantable tumor; experiment: Human colon cancer HT-29 transplantable tumor in nude mice; details: HT-29 in nude mice, 60 mg/kg ig 9 times
Description: Experimental therapeutic action of the compound in the present invention on Human colon cancer HT-29 transplantable tumor in nude mice.
Take eugenic tumor tissues and cut into about 1.5 mm^3, and then incoculate subcutaneously at the right armpit of nude mice under the sterile conditions. The diameter of the transplantable tumor in nude mice was determined with a vernier caliper, and the animals were divided into groups after the tumors were grown to 100-300 mm^3. Using the method of measuring the tumor diameter, dynamically observe the antitumor effects of tested materials. The diameter of the tumor was determined three times every week and the mouse weight was weighed at the same time. […] The solvent was intragastrically administrated as the control for continuous 9 times. Equal amount of control was administrated in the negative control group.
Tumor volume (TV) is calculated as: TV=½×a×b^2, wherein a and b respectively represent length and width.
Relative tumor volume (RTV) is calculated as: RTV=TVt/TV0, wherein TV0 is the tumor volume when administrated according to different cages and TVt is the tumor volume measured each time.
Relative tumor reproduction rate T/C (%) is calculated as follows:
TRTV: RTV in the treatment group; CRTV: RTV in the negative control group.
The test results used relative tumor reproduction rate T/C (%) as evaluating indicator of anti-tumor activity.

[8] = tested on: human high-metastic lung cancer cell 95D; experiment: Inhibition of human high-metastic lung cancer cell 95D migration (Boyden Chamber Transwell); assay type: cell-based; details: Final concentration 1 x 1.0*10^(−5) mol/L
Description: 5 Inhibition effects of compounds on human high-metastic lung cancer cell 95D migration
[Test materials] Boyden Chamber Transwell chamber (with pore size of 8 μm), human high-metastic lung cancer cell 95D cell strain, 1640 medium containing 10% FBS, 1640 medium containing no serum
as §1, §2, §3

[9] = tested on: human lung cancer A549 transplantation tumor; assay type: in vivo; details: BALB/cA nude mice; 60 mg/kg, 6 times every week for 3 weeks; Sorafenib oral 60 mg/kg
Description: 9. Tumor inhibition rate of tested compounds on human lung cancer A549 cell transplantation model in nude mice
as §5, §6

[10] = tested on: human lung cancer cell strain A549; experiment: MTT assay, inhibition of growth of human lung cancer cell strain A549; assay type: cell-based; details: Final concentration 1 x 1.0*10^(−5) mol/L
Description: 4. Using 3-(4,5-dimethylthiazol-2-yl)-2,5-diphenyl tetrazolium bromide assay (MTT) to detect the inhibition effects on the growth of human lung cancer cell strain A549
[Test materials] MTT working solution, F12 medium containing 10% FBS, continuous injectors
as §1, §2
The inhibition rate is calculated as follows:
(§7) Relative OD value of conrol well=OD value of control well−OD value of blank well
(§8) Relative OD value of drug well=OD value of drug well−OD value of blank well

[11] = tested on: human umbilical vein endothelial cell HUVEC; experiment: Growth of human umbilical vein endothelial cell HUVEC by CCK8 method; assay type: cell-based; details: Final concentration 1 x 1.0*10^(−5) mol/L
Description: 7. Effects of tested compounds on the growth of human umbilical vein endothelial cell HUVEC cell by CCK8 method
[Test materials] CCK8, human umbilical vein endothelial cell HUVEC cell, 1640 medium containing 10% FBS
as §4, §2, §7, §8

Structure (SMILES) | Tumor growth inhibition rate (%) [1] [%] | Inhibition rate, lumen formation ability of HUVEC [2] [%] | Inhibition rate, adhesion ability of human lung cancer cell A549 [3] [%] | Relative tumor reproduction rate T/C (%) on human renal carcinoma GCR-1 cell transplanted tumor model in nude mice [4] [%] | Relative tumor reproduction rate T/C (%) on human liver cancer cell bel-7402 transplantation tumor model in nude mice [5] [%] | Inhibition rate % on raf kinase [6] [%] | Relative tumor reproduction rate T/C (%) [7] [%] | Inhibition rate, 95D cell strain migration [8] [%] | Relative tumor reproduction rate T/C (%) on human lung cancer A549 transplantation tumor in nude mice [9] [%] | Inhibition rate, growth of human lung cancer cell A549 [10] [%] | Inhibition rate, growth of HUVEC cell [11] [%]
CNC(=O)c1ncc(Oc2ccc(NC(=O)Nc3ccc(Br)c(C(F)(F)F)c3)cc2)c(OC)n1 [Compound 9, N-(4-bromo-3-(trifluoromethyl)phenyl)-N′-(4-(2-(N-methylaminoformoxyl)-5-(4-methoxypyrimidinyl)oxy)phenyl)urea] | 55.9 | 91.45 | 85.32 | 28.3 | 36.8 | 99.2 | 35.2 | 91.42 | 38.7 | 61.54 | 11.54
CNC(=O)c1ncc(Oc2ccc(NC(=O)Nc3ccc(F)c(C(F)(F)F)c3)cc2)c2ccc(N)cc12 [Compound 11, N-(4-fluoro-3-(trifluoromethyl)phenyl)-N′-(4-(2-(N-methylaminoformoxyl)-4-(7-amino-isoquinolyl)oxy)phenyl)urea] | 54.2 | 79.63 | 59.63 | 32.1 | 23.7 | 11.2 | 81.2 | 78.66 | 43.7 | 69.20 | 29.20
CNC(=O)c1ncc(Oc2ccc(NC(=O)Nc3ccc(Br)c(C(F)(F)F)c3)cc2)c2ccc(N)cc12 [Compound 12, N-(4-bromo-3-(trifluoromethyl)phenyl)-N′-(4-(2-(N-methylaminoformoxyl)-4-(7-amino-isoquinolyl)oxy)phenyl)urea] | 45.7 | 52.37 | 62.30 | 20.5 | 31.6 | 12.1 | 80.5 | 66.79 | 36.3 | 42.31 | 12.31
CNC(=O)c1cc(Oc2ccc(NC(=O)Nc3ccc(Cl)c(C(F)(F)F)c3)cc2)c(C)[nH]1 [Compound 13, N-(4-chloro-3-(trifluoromethyl)phenyl)-N′-(4-(2-(N-methylaminoformoxyl)-4-(5-methyl-pyrryl)oxy)phenyl)urea] | 21.2 | 53.36 | 63.39 | 28.3 | 29.8 | 55.0 | 81.2 | 65.45 | 38.4 | 64.23 | 24.23
CNC(=O)c1cc(Oc2ccc(NC(=O)Nc3ccc(F)c(C(F)(F)F)c3)cc2)c(C)[nH]1 [Compound 14, N-(4-fluoro-3-(trifluoromethyl)phenyl)-N′-(4-(2-(N-methylaminoformoxyl)-4-(5-methyl-pyrryl)oxy)phenyl)urea] | 18.2 | 67.53 | 67.51 | 31.1 | 36.1 | 41.3 | 40.1 | 57.57 | 32.2 | 67.25 | 17.25
CNC(=O)c1cc(Oc2ccc(NC(=O)Nc3ccc(Br)c(C(F)(F)F)c3)cc2)c(C)[nH]1 [Compound 15, N-(4-bromo-3-(trifluoromethyl)phenyl)-N′-(4-(2-(N-methylaminoformoxyl)-4-(5-methyl-pyrryl)oxy)phenyl)urea] | 56.7 | 68.64 | 68.63 | 22.5 | 33.6 | 35.5 | 85.2 | 63.68 | 38.7 | 72.17 | 38.17
COc1ccc2nccc(Oc3ccc(NC(=O)Nc4ccc(Cl)c(C(F)(F)F)c4)cc3)c2c1 [Compound 16] | 33.6 | 80.79 | 90.77 | 9.9 | 14.9 | 62.1 | 55.2 | 89.31 | 9.9 | 89.71 | 10.71
COc1ccc2nccc(Oc3ccc(NC(=O)Nc4ccc(F)c(C(F)(F)F)c4)cc3)c2c1 [Compound 17] | 44.2 | 67.50 | 97.50 | 11.1 | 12.5 | 58.2 | 54.7 | 90.52 | 7.3 | 88.52 | 13.52
COc1ccc2nccc(Oc3ccc(NC(=O)Nc4ccc(Br)c(C(F)(F)F)c4)cc3)c2c1 [Compound 18] | 35.7 | 63.71 | 93.72 | 12.3 | 12.7 | 34.4 | 40.2 | 93.73 | 12.5 | 90.71 | 5.71
